How the values were obtained:
[1] = molecular target: T1, BRG-1 (Homo sapiens, UniProt P51532); experiment: ATPase catalytic activity of BRG-1, ADP-Glo in vitro biochemical assay; details: ATPase catalytic activity, 30 nM BRG-1, 400 μM ATP, read-out: BRG1 IP50 (μM)*
T1 construct: made in house; host or cells: High Five insect cells

[2] = molecular target: T2, BRM (Homo sapiens, UniProt P51531); experiment: ATPase catalytic activity of BRM, ADP-Glo in vitro biochemical assay; details: ATPase catalytic activity, 30 nM BRM, 400 μM ATP, read-out: BRM IP50 (μM)*
T2 construct: made in house; host or cells: High Five insect cells
T2 sequence (P51531 whole entry): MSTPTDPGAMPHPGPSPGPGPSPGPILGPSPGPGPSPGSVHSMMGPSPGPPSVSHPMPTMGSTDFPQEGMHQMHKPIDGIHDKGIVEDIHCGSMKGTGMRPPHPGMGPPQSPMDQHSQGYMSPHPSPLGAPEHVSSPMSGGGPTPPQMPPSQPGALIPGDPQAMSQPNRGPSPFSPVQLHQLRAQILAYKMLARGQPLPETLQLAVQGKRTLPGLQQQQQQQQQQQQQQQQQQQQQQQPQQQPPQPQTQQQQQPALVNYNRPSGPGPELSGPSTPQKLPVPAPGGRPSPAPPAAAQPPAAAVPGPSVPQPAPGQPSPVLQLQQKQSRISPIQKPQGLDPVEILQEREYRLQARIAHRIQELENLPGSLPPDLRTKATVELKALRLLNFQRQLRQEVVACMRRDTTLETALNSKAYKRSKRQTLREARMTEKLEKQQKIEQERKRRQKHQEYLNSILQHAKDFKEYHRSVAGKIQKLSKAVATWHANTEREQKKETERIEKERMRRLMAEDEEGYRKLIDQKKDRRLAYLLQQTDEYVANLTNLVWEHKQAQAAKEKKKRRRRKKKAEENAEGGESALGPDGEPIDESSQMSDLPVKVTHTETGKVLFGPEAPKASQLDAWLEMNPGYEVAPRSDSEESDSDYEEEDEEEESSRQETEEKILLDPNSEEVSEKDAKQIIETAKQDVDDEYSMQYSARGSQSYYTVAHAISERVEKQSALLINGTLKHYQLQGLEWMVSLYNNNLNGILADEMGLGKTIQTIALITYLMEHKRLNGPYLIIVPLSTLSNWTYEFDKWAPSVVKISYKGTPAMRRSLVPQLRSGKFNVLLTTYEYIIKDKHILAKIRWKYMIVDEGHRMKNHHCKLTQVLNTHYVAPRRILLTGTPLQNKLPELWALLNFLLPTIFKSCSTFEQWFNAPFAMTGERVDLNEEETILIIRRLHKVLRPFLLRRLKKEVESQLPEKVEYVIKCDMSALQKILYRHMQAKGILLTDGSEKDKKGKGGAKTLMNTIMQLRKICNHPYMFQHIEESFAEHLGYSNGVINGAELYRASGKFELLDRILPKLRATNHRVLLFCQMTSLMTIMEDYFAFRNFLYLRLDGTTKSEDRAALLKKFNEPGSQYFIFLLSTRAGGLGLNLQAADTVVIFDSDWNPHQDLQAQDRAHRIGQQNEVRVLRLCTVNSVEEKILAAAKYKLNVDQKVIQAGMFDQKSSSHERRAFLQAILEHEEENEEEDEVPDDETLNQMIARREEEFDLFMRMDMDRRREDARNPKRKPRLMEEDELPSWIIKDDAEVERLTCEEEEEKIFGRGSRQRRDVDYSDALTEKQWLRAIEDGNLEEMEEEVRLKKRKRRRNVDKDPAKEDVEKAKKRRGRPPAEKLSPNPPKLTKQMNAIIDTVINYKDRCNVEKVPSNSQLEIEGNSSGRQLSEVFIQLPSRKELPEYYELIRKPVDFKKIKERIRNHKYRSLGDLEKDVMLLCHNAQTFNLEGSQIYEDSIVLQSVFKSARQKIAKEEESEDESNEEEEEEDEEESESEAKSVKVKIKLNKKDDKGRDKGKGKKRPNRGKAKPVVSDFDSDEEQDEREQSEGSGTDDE

T1 sequence (P51532 whole entry): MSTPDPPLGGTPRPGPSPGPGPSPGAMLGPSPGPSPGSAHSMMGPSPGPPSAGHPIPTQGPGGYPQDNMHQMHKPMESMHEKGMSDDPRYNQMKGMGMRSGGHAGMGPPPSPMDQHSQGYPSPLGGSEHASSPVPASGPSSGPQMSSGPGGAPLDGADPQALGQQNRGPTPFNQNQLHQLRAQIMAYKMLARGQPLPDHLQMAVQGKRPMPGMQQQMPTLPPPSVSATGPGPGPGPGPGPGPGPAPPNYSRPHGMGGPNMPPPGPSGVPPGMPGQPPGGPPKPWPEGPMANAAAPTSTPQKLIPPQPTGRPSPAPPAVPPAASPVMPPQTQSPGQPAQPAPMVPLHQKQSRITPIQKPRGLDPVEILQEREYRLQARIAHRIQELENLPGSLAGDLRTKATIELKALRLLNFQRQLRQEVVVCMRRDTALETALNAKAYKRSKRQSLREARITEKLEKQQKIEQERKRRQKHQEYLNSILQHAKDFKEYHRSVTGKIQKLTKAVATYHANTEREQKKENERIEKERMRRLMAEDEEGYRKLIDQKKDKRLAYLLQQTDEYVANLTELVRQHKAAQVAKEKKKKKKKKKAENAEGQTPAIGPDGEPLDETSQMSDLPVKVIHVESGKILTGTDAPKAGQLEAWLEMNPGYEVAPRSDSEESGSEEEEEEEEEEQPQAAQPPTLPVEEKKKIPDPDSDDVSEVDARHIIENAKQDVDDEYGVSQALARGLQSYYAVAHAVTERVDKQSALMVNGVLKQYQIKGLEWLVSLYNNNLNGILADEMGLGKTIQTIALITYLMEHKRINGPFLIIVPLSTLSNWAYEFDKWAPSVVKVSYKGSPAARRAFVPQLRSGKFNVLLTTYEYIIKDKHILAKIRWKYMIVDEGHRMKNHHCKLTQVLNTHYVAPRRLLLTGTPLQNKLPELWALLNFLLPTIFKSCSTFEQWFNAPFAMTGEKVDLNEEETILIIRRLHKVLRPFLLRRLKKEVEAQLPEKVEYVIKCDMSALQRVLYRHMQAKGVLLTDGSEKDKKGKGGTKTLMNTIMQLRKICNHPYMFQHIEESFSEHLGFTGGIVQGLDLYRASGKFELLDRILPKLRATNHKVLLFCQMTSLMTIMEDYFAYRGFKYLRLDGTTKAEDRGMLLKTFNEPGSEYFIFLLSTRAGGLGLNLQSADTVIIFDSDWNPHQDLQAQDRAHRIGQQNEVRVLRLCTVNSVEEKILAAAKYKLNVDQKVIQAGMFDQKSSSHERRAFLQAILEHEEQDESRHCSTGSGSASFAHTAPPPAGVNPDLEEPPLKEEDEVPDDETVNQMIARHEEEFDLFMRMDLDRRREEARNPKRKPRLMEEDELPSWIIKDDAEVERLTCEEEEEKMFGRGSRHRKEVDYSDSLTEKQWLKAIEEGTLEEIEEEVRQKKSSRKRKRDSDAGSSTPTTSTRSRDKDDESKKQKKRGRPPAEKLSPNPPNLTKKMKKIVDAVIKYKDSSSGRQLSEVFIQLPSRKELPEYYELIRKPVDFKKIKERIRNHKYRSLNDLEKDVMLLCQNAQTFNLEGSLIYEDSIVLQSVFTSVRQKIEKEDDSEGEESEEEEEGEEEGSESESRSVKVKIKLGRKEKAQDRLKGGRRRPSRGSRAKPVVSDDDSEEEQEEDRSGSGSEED

IC50 [1] [µM] | IC50 [2] [µM] | SMILES
> 0.01 | > 0.01 | COC[C@H](NC(=O)c1ccn(S(C)(=O)=O)c1)C(=O)Nc1nc(-c2ccc3c(c2)C(=O)N(C)CC3)cs1 [Compound 351]
< 0.01 | < 0.01 | COC[C@H](NC(=O)c1ccn(S(C)(=O)=O)c1)C(=O)Nc1nc(-c2cccc(-c3cnn(C)n3)c2)cs1 [Compound 352]
> 0.01 | > 0.01 | COC[C@H](NC(=O)c1ccn(S(C)(=O)=O)c1)C(=O)Nc1nc(-c2cccc(-c3cnn(C)c3)c2)cs1 [Compound 360]
> 0.01 | < 0.01 | COC[C@H](NC(=O)c1ccn(S(C)(=O)=O)c1)C(=O)Nc1nc(-c2cccc(N3CCC3)c2)cs1 [Compound 366]
> 0.01 | > 0.01 | COC[C@H](NC(=O)c1ccn(S(C)(=O)=O)c1)C(=O)Nc1nc(-c2cccc(N3CC(OC)C3)c2)cs1 [Compound 367]
> 0.01 | > 0.01 | COC[C@H](NC(=O)c1ccn(S(C)(=O)=O)c1)C(=O)Nc1nc(-c2cccc(N3C[C@@H](C)O[C@@H](C)C3)c2F)cs1 [Compound 368]
< 0.01 | < 0.01 | COC[C@H](NC(=O)c1ccn(S(C)(=O)=O)c1)C(=O)Nc1nc(-c2cccc(N3C[C@@H](C)O[C@@H](C)C3)c2)cs1 [Compound 371]
> 0.01 | < 0.01 | COC[C@H](NC(=O)c1ccn(S(C)(=O)=O)c1)C(=O)Nc1nc(-c2cccc(N3CCO[C@H](C)C3)c2)cs1 [Compound 372]
> 0.01 | < 0.01 | COC[C@H](NC(=O)c1ccn(S(C)(=O)=O)c1)C(=O)Nc1nc(-c2cccc(N3CCO[C@@H](C)C3)c2)cs1 [Compound 373]
> 0.01 | > 0.01 | COC[C@H](NC(=O)c1ccn(C2(C)COC2)c1)C(=O)Nc1nc(-c2ccc(F)c(N3C[C@@H](C)O[C@@H](C)C3)n2)cs1 [Compound 376]
> 0.01 | < 0.01 | COC[C@H](NC(=O)c1ccn(S(C)(=O)=O)c1)C(=O)Nc1nc(-c2ccc(F)c(N3C[C@@H](C)O[C@@H](C)C3)n2)cs1 [Compound 377]
> 0.01 | < 0.01 | C[C@@H]1CN(c2nc(-c3csc(NC(=O)CNC(=O)c4ccn(C5(C)COC5)c4)n3)ccc2F)C[C@H](C)O1 [Compound 378]
< 0.01 | < 0.01 | C[C@@H]1CN(c2nc(-c3csc(NC(=O)CNC(=O)c4ccn(S(C)(=O)=O)c4)n3)ccc2F)C[C@H](C)O1 [Compound 379]
< 0.01 | < 0.01 | COC[C@H](NC(=O)c1ccn(S(C)(=O)=O)c1)C(=O)Nc1nc(-c2cc(F)c(F)c(N3C[C@@H](C)O[C@@H](C)C3)c2)cs1 [Compound 380]
> 0.01 | < 0.01 | COC[C@H](NC(=O)c1ccn(C(C)(C)C)c1)C(=O)Nc1nc(-c2ccnc(N3C[C@@H](C)O[C@@H](C)C3)n2)cs1 [Compound 381]

More lines, now with the values behind:

SMILES | IC50 [1] [µM] | IC50 [2] [µM]
Cn1ccc(-c2cccc(-c3csc(NC(=O)CNC(=O)c4ccn(C5(C)COC5)c4)n3)n2)n1 [Compound 327, 1-(3-methyloxetan-3-yl)-N-[2-[[4-[6-(1-methylpyrazol-3-yl)-2-pyridyl]thiazol-2-yl]amino]-2-oxo-ethyl]pyrrole-3-carboxamide] | > 0.01 | > 0.01
CO[C@@H]1CCCN(c2cccc(-c3csc(NC(=O)CNC(=O)c4ccn(C5(C)COC5)c4)n3)n2)C1 [Compound 330] | > 0.1 | > 0.1
C[C@@H]1CN(c2cccc(-c3csc(NC(=O)CNC(=O)c4ccn(C(C)(C)C#N)c4)n3)n2)C[C@H](C)O1 [Compound 331] | < 0.01 | < 0.01
C[C@@H]1CN(c2cccc(-c3csc(NC(=O)CNC(=O)c4ccn(C5(C(F)(F)F)CC5)c4)n3)n2)C[C@H](C)O1 [Compound 332] | > 0.1 | > 0.01
C[C@@H]1CN(c2cccc(-c3csc(NC(=O)CNC(=O)c4ccn(C5(C)CC5)c4)n3)n2)C[C@H](C)O1 [Compound 333] | < 0.01 | < 0.01
C[C@@H]1CCCN(c2cccc(-c3csc(NC(=O)CNC(=O)c4ccn(S(C)(=O)=O)c4)n3)n2)C1 [Compound 336] | > 0.01 | > 0.01
CC1(n2ccc(C(=O)NCC(=O)Nc3nc(-c4cccc(N5CCC(O)CC5)n4)cs3)c2)COC1 [Compound 337] | > 0.01 | > 0.01
CS(=O)(=O)n1ccc(C(=O)NCC(=O)Nc2nc(-c3cccc(N4CCC(F)CC4)n3)cs2)c1 [Compound 339] | > 0.01 | > 0.01
C[C@H]1CCCN(c2cccc(-c3csc(NC(=O)CNC(=O)c4ccn(S(C)(=O)=O)c4)n3)n2)C1 [Compound 340] | > 0.01 | > 0.01
CC1(n2ccc(C(=O)NCC(=O)Nc3nc(-c4cccc(N5CCOCC5)n4)cs3)c2)COC1 [Compound 341] | > 0.1 | > 0.01
C[C@@H]1CN(c2cccc(-c3csc(NC(=O)CNC(=O)c4ccn(C5COC5)c4)n3)n2)C[C@H](C)O1 [Compound 343] | > 0.1 | > 0.01
C[C@@H]1CN(c2cccc(-c3csc(NC(=O)CNC(=O)c4ccn(C(C)(C)C)n4)n3)n2)C[C@H](C)O1 [Compound 344] | > 0.01 | > 0.01
COC[C@H](NC(=O)c1ccn(C(C)(C)C)n1)C(=O)Nc1nc(-c2ccc3ccn(C)c(=O)c3c2)cs1 [Compound 345] | > 0.1 | > 0.1
CCn1ccc2ccc(-c3csc(NC(=O)[C@H](COC)NC(=O)c4ccn(C(C)(C)C)c4)n3)cc2c1=O [Compound 347] | > 0.01 | > 0.01
C[C@H](NC(=O)c1ccn(C2(C)COC2)c1)C(=O)Nc1nc(-c2ccc3ccn(C)c(=O)c3c2)cs1 [Compound 348] | > 0.01 | > 0.01
CS(=O)(=O)n1ccc(C(=O)NCC(=O)Nc2nc(-c3cccc(C#CC4COC4)c3)cs2)c1 [Compound 349] | > 0.01 | > 0.01

SMILES | IC50 [1] [µM] | IC50 [2] [µM]
COC[C@H](NC(=O)c1ccn(S(C)(=O)=O)c1)C(=O)Nc1nc(-c2cccc(C3CC(C)(C)OC(C)(C)C3)c2)cs1 [Compound 353] | > 0.1 | > 0.01
COC[C@H](NC(=O)c1ccn(S(C)(=O)=O)c1)C(=O)Nc1nc(-c2cccc(C3=CC(C)(C)OC(C)(C)C3)c2)cs1 [Compound 354] | > 0.01 | > 0.01
C[C@H](NC(=O)c1ccn(S(C)(=O)=O)c1)C(=O)Nc1nc(-c2cccc(-c3cnn(C)n3)c2)cs1 [Compound 355] | > 0.01 | > 0.01
COC[C@H](NC(=O)c1ccn(S(C)(=O)=O)c1)C(=O)Nc1nc(-c2cccc(-c3cccc(C)n3)c2)cs1 [Compound 356] | > 0.01 | > 0.01
COC[C@H](NC(=O)c1ccn(S(C)(=O)=O)c1)C(=O)Nc1nc(-c2cccc(-c3ccnc(C)n3)c2)cs1 [Compound 357, N-[(1S)-1-(methoxymethyl)-2-[[4-[3-(2-methylpyrimidin-4-yl)phenyl]thiazol-2-yl]amino]-2-oxo-ethyl]-1-methylsulfonyl-pyrrole-3-carboxamide] | < 0.01 | < 0.01
COC[C@H](NC(=O)c1ccn(S(C)(=O)=O)c1)C(=O)Nc1nc(-c2cccc(-c3cc(C)nc(C)n3)c2)cs1 [Compound 358, N-[(1S)-2-[[4-[3-(2,6-dimethylpyrimidin-4-yl)phenyl]thiazol-2-yl]amino]-1-(methoxymethyl)-2-oxo-ethyl]-1-methylsulfonyl-pyrrole-3-carboxamide] | < 0.01 | < 0.01
COC[C@H](NC(=O)c1ccn(S(C)(=O)=O)c1)C(=O)Nc1nc(-c2cccc(-c3ccnc(C(F)F)c3)c2)cs1 [Compound 359] | < 0.01 | < 0.01
CC1(C#Cc2cccc(-c3csc(NC(=O)CNC(=O)c4ccn(S(C)(=O)=O)c4)n3)c2)COC1 [Compound 361, N-(2-((4-(3-((3-methyloxetan-3-yl)ethynyl)phenyl)thiazol-2-yl)amino)-2-oxoethyl)-1-(methylsulfonyl)-1H-pyrrole-3-carboxamide] | > 0.01 | > 0.01
COC(C)(C)C#Cc1cccc(-c2csc(NC(=O)CNC(=O)c3ccn(C(C)(C)C)c3)n2)n1 [Compound 362, 1-(tert-butyl)-N-(2-((4-(6-(3-methoxy-3-methylbut-1-yn-1-yl)pyridin-2-yl)thiazol-2-yl)amino)-2-oxoethyl)-1H-pyrrole-3-carboxamide] | > 0.1 | > 0.1
COC(C)(C)C#Cc1cccc(-c2csc(NC(=O)CNC(=O)c3ccn(S(C)(=O)=O)c3)n2)c1 [Compound 363] | > 0.01 | > 0.01
C[C@H](NC(=O)c1ccn(S(C)(=O)=O)c1)C(=O)Nc1nc(-c2cccc(N3CCC3)c2)cs1 [Compound 364] | > 0.01 | > 0.01
C[C@H](NC(=O)c1ccn(S(C)(=O)=O)c1)C(=O)Nc1nc(-c2cccc(N3CC(O)C3)c2)cs1 [Compound 365] | > 0.01 | > 0.01
COC[C@H](NC(=O)c1ccn(S(C)(=O)=O)c1)C(=O)Nc1nc(-c2cccc(N3CCC(O)CC3)c2)cs1 [Compound 369] | > 0.01 | < 0.01
C[C@H](NC(=O)c1ccn(S(C)(=O)=O)c1)C(=O)Nc1nc(-c2cccc(N3CCC(O)CC3)c2)cs1 [Compound 370] | > 0.01 | > 0.01
C[C@@H]1CN(c2cccc(-c3cccc(NC(=O)CNC(=O)c4ccn(S(C)(=O)=O)c4)n3)c2)C[C@H](C)O1 [Compound 374, N-[2-[[6-[3-[(cis)-2,6-dimethylmorpholin-4-yl]phenyl]-2-pyridyl]amino]-2-oxo-ethyl]-1-methylsulfonyl-pyrrole-3-carboxamide] | > 0.01 | > 0.01
C[C@@H]1CN(c2cccc(-c3csc(NC(=O)[C@H](CO)NC(=O)c4ccn(C5(C)COC5)c4)n3)n2)C[C@H](C)O1 [Compound 375] | > 0.01 | > 0.01
